Where “and” joins values, the source holds several entries; their conditions need not be identical. Identical values can stand only once. Calls of active or inactive are those of the source. The rule behind the calls is not given here.
Each compound was assayed on in vivo angiogenesis, blood vessel count (assay: reduction of blood vessel formation in vivo – HTS, in vivo study (AID 732;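 note: zebrafish embryos dosed at one day post fertilization; 0% = reference inhibitor and 100% = plate mean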)). Details: active compounds read low;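 tested at 30 µM in the well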.
For `Cc1ncc(CNC(=O)N(CCCl)N=O)c(N)n1`, the vessel count % control was 90.1% (inactive). In the case of `CNC[C@H](O)c1cccc(O)c1`, the vessel count % control is reported as 109% (inactive). In the case of `C[C@H](O)C(=O)C1=Nc2c(nc(N)[nH]c2=O)NC1`, the vessel count % control is reported as 117% (inactive). `C[C@]12CC[C@@H]3c4ccc(O)cc4CC[C@H]3[C@@H]1CC[C@@H]2O` was tested, and the vessel count % control was 104% (inactive). With `C[C@]12CC[C@H](O)CC1=CC[C@@H]1[C@@H]2CC[C@]2(C)C(=O)CC[C@@H]12` the vessel count % control was 106% (inactive). `COc1ccc2c(c1OC)C(=O)O[C@H]2[C@@H]1c2cc3c(cc2CCN1C)OCO3` was tested, and the vessel count % control was 116% (inactive). In the case of `N=C(N)c1ccc(N)cc1`, the vessel count % control is reported as 114% (inactive). For `CC(C)(C)NCC(O)c1ccc(O)c(CO)c1` (stereo unspecified), the vessel count % control was 122% (inactive) and 102% (inactive). `CCOC(=O)C1=C[C@]2(CC)CCCN3CCc4c(n1c1ccccc41)[C@@H]32` was tested, and the vessel count % control was 0% (inactive). In the case of `COc1ccc2c3c1O[C@H]1C(=O)CC[C@@]4(O)C(C2)N(CC2CC2)CCC314` (stereo partly specified), the vessel count % control is reported as 124% (inactive). In the case of `CCC(=O)c1ccc2c(c1)N(CCCN(C)C)c1ccccc1S2`, the vessel count % control is reported as 112% (inactive). In the case of `Cc1ccc(/C(=C\CN2CCCC2)c2ccccn2)cc1`, the vessel count % control is reported as 80% (inactive). With `CCCCCC(O)c1cccc(OCc2ccc3ccccc3n2)c1` (stereo unspecified) the vessel count % control was 83.4% (inactive). `O=c1c(O)c(-c2ccc(O)c(O)c2)oc2cc(O)cc(O)c12` was tested, and the vessel count % control was 115% (inactive). With `NCCc1ccc(O)c(O)c1` the vessel count % control was 91.6% (inactive). With `N#CC(=Cc1ccc(O)c(O)c1)C(N)=S` the vessel count % control was 118% (inactive). For `C[C@@H](NC(=O)/C(C#N)=C/c1ccc(O)c(O)c1)c1ccccc1`, the vessel count % control was 128% (inactive). For `CC(C)(O)[C@@H]1[C@H]2OC(=O)[C@@H]1[C@]1(O)C[C@H]3O[C@]34C(=O)O[C@H]2[C@]14C` (tested in a mixture with another compound), the vessel count % control was 116% (inactive). `CC(C)[C@@]1(NC(=O)[C@@H]2C[C@@H]3c4cccc5[nH]cc(c45)C[C@H]3N(C)C2)O[C@@]2(O)[C@@H]3CCCN3C(=O)[C@H](Cc3ccccc3)N2C1=O` was tested, and the vessel count % control was 118% (inactive). `COC(=O)[C@H](NC(=O)c1cc(-c2ccccc2)nc2ccccc12)c1ccccc1` was tested, and the vessel count % control was 97.2% (inactive). For `NC(N)=NOCC[C@H](N)C(=O)O`, the vessel count % control was 94.1% (inactive). `O=c1c(O)c(-c2cc(O)c(O)c(O)c2)oc2cc(O)cc(O)c12` was tested, and the vessel count % control was 87.9% (inactive). With `NCC#Cc1ccccc1` the vessel count % control was 107% (inactive). In the case of `CCCCNc1ccc(C(=O)OCCN(C)C)cc1`, the vessel count % control is reported as 100% (inactive). For `COc1ccc(CNC(=O)/C=C/c2ccc3[nH]cc(CCN(C)C)c3c2)cc1`, the vessel count % control was 75.8% (inactive). With `c1ccc(CN2CCC3(CCCc4ccccc43)CC2)cc1` the vessel count % control was 128% (inactive). For `CC1=C(C(=O)O)N2C(=O)[C@@H](NC(=O)C(N)c3ccccc3)[C@H]2SC1` (stereo partly specified), the vessel count % control was 93.6% (inactive). With `Nc1c(S(=O)(=O)O)cc(Nc2ccc(Nc3nc(Cl)nc(Nc4ccc(S(=O)(=O)O)cc4)n3)c(S(=O)(=O)O)c2)c2c1C(=O)c1ccccc1C2=O` the vessel count % control was 106% (inactive). For `CCCN1CCC[C@H](c2cccc(O)c2)C1`, the vessel count % control was 77.4% (inactive). `NC1CCN(O)C1=O` (stereo unspecified) was tested, and the vessel count % control was 115% (inactive). `CCCc1c(-c2ccc(O)cc2)nn(-c2ccc(O)cc2)c1-c1ccc(O)cc1` was tested, and the vessel count % control was 106% (inactive). With `C[N+]1(C)CCN(c2ccccc2)CC1` the vessel count % control was 89.3% (inactive). `Cn1cc(C(F)(F)F)nc1-c1ccc(OCC(O)CNCCOc2ccc(O)c(C(N)=O)c2)cc1` (stereo unspecified) was tested, and the vessel count % control was 82.4% (inactive). For `CC(C)c1ccc2c(c1)c(SC(C)(C)C)c(CC(C)(C)C(=O)O)n2Cc1ccc(Cl)cc1`, the vessel count % control was 99.4% (inactive). For `CN1CCc2c(cc(O)c(O)c2Cl)C(c2cccc(Cl)c2)C1` (stereo unspecified), the vessel count % control was 118% (inactive). For `COc1ccc2c(c1)[C@@]13CCCC[C@H]1[C@@H](C2)NCC3`, the vessel count % control was 78.3% (inactive). In the case of `CCCCCCCCCC[Si](C)(C)CCC(=O)NC(Cc1ccc(C)cc1)c1ccccc1` (stereo unspecified), the vessel count % control is reported as 109% (inactive). In the case of `CCCN1CCC[C@@H]2Cc3[nH]ncc3C[C@H]21`, the vessel count % control is reported as 129% (inactive) and 112% (inactive). With `COc1ccc(C2CNC(=O)C2)cc1OC1CCCC1` (stereo unspecified) the vessel count % control was 96.6% (inactive). For `COc1ccc2c(c1)c(CC(=O)O)c(C)n2Cc1ccc(F)cc1`, the vessel count % control was 106% (inactive). For `CCn1cc(C(=O)O)c(=O)c2cc(F)c(N3CCNC(C)C3)c(F)c21` (stereo unspecified), the vessel count % control was 89.7% (inactive). With `N[C@@H](Cc1cnc[nH]1)C(=O)O` the vessel count % control was 107% (inactive). For `CC(C)N(CCC(C(N)=O)(c1ccccc1)c1ccccn1)C(C)C` (stereo unspecified), the vessel count % control was 99.1% (inactive) and 109% (inactive). `Nc1ncnc2c1ncn2C1CCCO1` (stereo unspecified) was tested, and the vessel count % control was 101% (inactive). In the case of `CN(C)CCC(c1ccccc1)c1ccccn1` (stereo unspecified), the vessel count % control is reported as 109% (inactive). In the case of `N#CC(=C(\N)Sc1ccccc1N)/C(C#N)=C(/N)Sc1ccccc1N`, the vessel count % control is reported as 94.5% (inactive). In the case of `COCc1nc2c([nH]1)c(=O)n(C)c(=O)n2CC(C)C`, the vessel count % control is reported as 93% (inactive). In the case of `C[C@@H]1O[C@@H](O[C@H]2C[C@@H](O)[C@]3(CO)[C@@H]4C(CC[C@]3(O)C2)[C@@]2(O)CC[C@H](C3COC(=O)C3)[C@@]2(C)C[C@H]4O)[C@H](O)[C@H](O)[C@H]1O` (stereo partly specified), the vessel count % control is reported as 104% (inactive). In the case of `CCNC(=O)C1OC(n2cnc3c(NCc4ccccc4)ncnc32)C(O)C1O` (stereo unspecified), the vessel count % control is reported as 110% (inactive). For `CCc1cccc(N(C)C(N)=Nc2cccc3ccccc23)c1`, the vessel count % control was 105% (inactive). In the case of `O=c1n(CCCN2CCN(c3cccc(Cl)c3)CC2)nc2ccccn12`, the vessel count % control is reported as 88% (inactive). For `COc1cc(CNC(=O)CCCCCCC(C)C)ccc1O`, the vessel count % control was 128% (inactive). With `COc1cc2nc(N3CCN(C(=O)OCc4ccccc4)C(C(=O)NC(C)(C)C)C3)nc(N)c2cc1OC` (stereo unspecified) the vessel count % control was 104% (inactive). For `CNC(=O)[C@H]1O[C@@H](n2cnc3c(N)ncnc32)C(O)[C@H]1O` (stereo partly specified), the vessel count % control was 118% (inactive). For `Oc1[nH]c2ccccc2c1C1=Nc2ccc(Br)cc2/C1=N\OCCN1CCCC1`, the vessel count % control was 91.2% (inactive) and 74% (inactive). In the case of `CCCCNc1cc(C(=O)O)cc(S(N)(=O)=O)c1Oc1ccccc1`, the vessel count % control is reported as 59.2% (inactive). For `NC(N)=Nc1ccc2[nH]c3c(c2c1)C[C@@]1(O)[C@H]2Cc4ccc(O)c5c4[C@@]1(CCN2CC1CC1)[C@H]3O5`, the vessel count % control was 101% (inactive). With `C=CCN1CCc2c(cc(O)c(O)c2Br)[C@@H](c2ccccc2)C1` the vessel count % control was 85% (inactive). For `CN1CCN(c2ccc3ccccc3n2)CC1`, the vessel count % control was 104% (inactive). `CC(C)(C)NCC(O)COc1nsnc1N1CCOCC1` (stereo unspecified) was tested, and the vessel count % control was 101% (inactive). In the case of `CCCCCCCCCCCCCCCCOCC(COCC(F)(F)F)OP(=O)(O)OCO` (stereo unspecified), the vessel count % control is reported as 109% (inactive). For `COc1cc2ncnc(Nc3cccc(Cl)c3)c2cc1OC`, the vessel count % control was 34.6%. For `OC[C@H]1O[C@@H](n2cnc3cncnc32)[C@H](O)[C@@H]1O`, the vessel count % control was 82.1% (inactive). `CC(=O)[C@@]1(O)CC[C@H]2[C@@H]3CCC4=CC(=O)CC[C@]4(C)[C@H]3CC[C@@]21C` was tested, and the vessel count % control was 98.7% (inactive). `CCCCNC(=O)NS(=O)(=O)c1ccc(C)cc1` was tested, and the vessel count % control was 87.6% (inactive). With `COc1ccc2c(c1)C13CCCCC1C(C2)N(C)CC3` (stereo unspecified) the vessel count % control was 108% (inactive).
